Measured values as given in patent publication EP0555116B1, “Compositions based on antiseptics and their applications” (HUTCHINSON, priority 1992, dated 1993).
Read-outs that look alike come from different tables or passages of the source.

Assays:
[1] = system: Candida albicans ATCC 1031; assay: Growth inhibition test (DGHM, Essai 2, Tables A-C), 72 h at 37°C; non/A/B/C = without or with inactivating substances A, B, C; type: cell-based
Protocol: Un autre essai a été réalisé à partir des solutions suivantes : • 100 ml d'une solution à 0,1 % de digluconate de chlorhexidine (pH 6) et • 100 ml d'une solution à 0,1 % de Bardac 22®. […]
(§1) Les tests ont été réalisés conformément au protocole décrit dans le Chapitre I/2.1 et 2.2 de Richtlinien für die Prüfung und Bewertung chemischer Desinfektionsverfahren der DGHM, Stand 1.1., 1981).
Les Tableaux A, B et C illustrent respectivement l'activité bactéricide et fongicide d'une solution aqueuse à 0,1 % de digluconate de chlorhexidine, d'une solution aqueuse à 0,1 % de Bardac 22® et d'un mélange à part égale des deux composés. Les protocoles dont ces Tableaux illustrent les résultats comprennent une incubation de 72 heures à 37°C et l'utilisation, comme témoins, des substances inactivantes suivantes : A : Tween® 80 3 % + lécithine 0,3 % + cystéine 0,1 %; B : Tween® 80 3 % + saponine 3 % + cystéine 0,1 % + histidine 0,1 %; C : Tween® 80 3 % + lécithine 0,3 % + histidine 0,1 % + thiosulfate de sodium 0,5 %.
Dans ces Tableaux, le signe "+" indique une croissance et le signe "-" l'absence de croissance.

[2] = system: spermatozoïdes; assay: Spermicidal action: vitality of spermatozoa (eosin-nigrosin, 100 spermatozoa examined); type: cell-based; conditions: Homo sapiens, Sperm; for viability at 0.4 %: read-out: vitalité des spermatozoïdes, solution 0,4 %; for viability at 0.6 %: read-out: vitalité des spermatozoïdes, solution 0,6 %; for viability at 0.8 %: read-out: vitalité des spermatozoïdes, solution 0,8 %; for viability at 1 %: read-out: vitalité des spermatozoïdes, solution 1 %
From the text: Les différents échantillons de sperme (une goutte de sperme/échantillon) sont obtenus à partir de volontaires sains.
Une goutte de sperme est traitée par l'éosinenigrosine. Un frottis est ensuite réalisé et cent spermatozoïdes sont examinés au microscope. Les cellules mortes sont colorées en rouge, soit totalement, soit partiellement. Les cellules vivantes sont incolores.
Les substances étudiées ont été, le Bardac® et le digluconate de chlorhexidine, testés seuls et en association conformément à l'invention. Les différentes étapes du protocole sont indiquées aux Tableaux IV à VI.
Le temps de contact maximum des différentes substances et du sperme a été limité à 3 minutes afin de garantir l'efficacité de la méthode dans les conditions d'utilisation. La concentration des solutions actives dans le sperme a été limitée à 10 % afin de diminuer les risques de toxicité des produits pour les muqueuses. TABLEAU IV

[3] = system: E. coli ATCC 11229; assay: Disinfection time test (Essai 2, Tables D-F), reaction at 22°, subcultures 72 h at 37°C; type: cell-based, Escherichia coli
Protocol: Un autre essai a été réalisé à partir des solutions suivantes : • 100 ml d'une solution à 0,1 % de digluconate de chlorhexidine (pH 6) et • 100 ml d'une solution à 0,1 % de Bardac 22®.
as §1
Les tests dont les résultats sont illustrés aux Tableaux D, E et F ont été réalisés à une température de réaction de 22° avec une incubation des sous-cultures 72 heures à 37°C avec comme substances inactivantes : Tween® 80 3 % + saponine 3 % + cystéine 0,1 % + histidine 0,1 %; ces Tableaux illustrent respectivement l'activité bactéricide et fongicide d'une solution aqueuse à 0,1 % de digluconate de chlorhexidine, d'une solution aqueuse à 0,1 % de Bardac 22® et d'un mélange à part égale des deux composés et montrent l'action des antiseptiques précités, en fonction du temps de contact, et font apparaître la même synergie d'action de l'association que ci-dessus, dans la mesure où l'association des deux composés permet de diminuer significativement leur concentration, pour l'obtention d'un même effet. TABLEAU D

[4] = 1 min, 1 Min, 5 % dans le sperme
[5] = 1 min, 1 Min, 10 % dans le sperme
[6] = 0.05 h, 3 Min, 5 % dans le sperme
[7] = 0.05 h, 3 Min, 10 % dans le sperme

CCCCCCCCCC[N+](C)(C)CCCCCCCCCC [Bardac®, chlorure de didécyldiméthylammonium]
2.2 ± 4.5%: viability at 0.6 % [2, 6]
5 ± 6.4%: viability at 0.4 % [2, 5]
10.5 ± 9.7%: viability at 0.6 % [2, 4]
10.7 ± 7.6%: viability at 0.4 % [2, 4]
+: croissance ([1]; Conc. 0,1 % (vol/vol), A) | croissance ([1]; Conc. 0,1 % (vol/vol), B) | croissance ([1]; Conc. 0,1 % (vol/vol), C) | croissance ([1]; Conc. 0,05 % (vol/vol), A) | croissance ([1]; Conc. 0,5 % (vol/vol), A) | croissance ([1]; Conc. 0,05 % (vol/vol), B) | croissance ([1]; Conc. 0,5 % (vol/vol), B) | croissance ([1]; Conc. 0,05 % (vol/vol), C) | croissance ([1]; Conc. 0,5 % (vol/vol), C) | croissance ([1]; Conc. 0,05 % (vol/vol), non) | croissance ([1]; Conc. 1,0 % (vol/vol), A) | croissance ([1]; Conc. 1,0 % (vol/vol), B) | croissance ([1]; Conc. 1,0 % (vol/vol), C) | croissance ([1]; Conc. 0,00625 % (vol/vol), A) | croissance ([1]; Conc. 0,00625 % (vol/vol), B) | croissance ([1]; Conc. 0,00625 % (vol/vol), C) | croissance ([1]; Conc. 0,00625 % (vol/vol), non) | croissance ([1]; Conc. 0,0125 % (vol/vol), A) | croissance ([1]; Conc. 0,0125 % (vol/vol), B) | croissance ([1]; Conc. 0,0125 % (vol/vol), C) | croissance ([1]; Conc. 0,0125 % (vol/vol), non) | croissance ([1]; Conc. 0,025 % (vol/vol), A) | croissance ([1]; Conc. 0,025 % (vol/vol), B) | croissance ([1]; Conc. 0,025 % (vol/vol), C) | croissance ([1]; Conc. 0,025 % (vol/vol), non) | croissance ([3]; Conc. 0,1 % (vol/vol), 1 min) | croissance ([3]; Conc. 0,1 % (vol/vol), 3 min) | croissance ([3]; Conc. 0,1 % (vol/vol), 5 min) | croissance ([3]; Conc. 0,1 % (vol/vol), 15 min) | croissance ([3]; Conc. 0,1 % (vol/vol), 30 min) | croissance ([3]; Conc. 0,1 % (vol/vol), 60 min) | croissance ([3]; Conc. 0,05 % (vol/vol), 1 min) | croissance ([3]; Conc. 0,5 % (vol/vol), 1 min) | croissance ([3]; Conc. 0,05 % (vol/vol), 3 min) | croissance ([3]; Conc. 0,5 % (vol/vol), 3 min) | croissance ([3]; Conc. 0,05 % (vol/vol), 5 min) | croissance ([3]; Conc. 0,5 % (vol/vol), 5 min) | croissance ([3]; Conc. 0,05 % (vol/vol), 15 min) | croissance ([3]; Conc. 0,5 % (vol/vol), 15 min) | croissance ([3]; Conc. 0,05 % (vol/vol), 30 min) | croissance ([3]; Conc. 0,5 % (vol/vol), 30 min) | croissance ([3]; Conc. 0,05 % (vol/vol), 60 min) | croissance ([3]; Conc. 0,5 % (vol/vol), 60 min) | croissance ([3]; Conc. 1 % (vol/vol), 1 min) | croissance ([3]; Conc. 1 % (vol/vol), 3 min) | croissance ([3]; Conc. 1 % (vol/vol), 5 min) | croissance ([3]; Conc. 1 % (vol/vol), 15 min) | croissance ([3]; Conc. 1 % (vol/vol), 30 min) | croissance ([3]; Conc. 1 % (vol/vol), 60 min) | croissance ([3]; Conc. 5 % (vol/vol), 1 min) | croissance ([3]; Conc. 5 % (vol/vol), 3 min) | croissance ([3]; Conc. 5 % (vol/vol), 5 min) | croissance ([3]; Conc. 10 % (vol/vol), 1 min) | croissance ([3]; Conc. 10 % (vol/vol), 3 min)
0,0001%: concentration en substance active inhibant la croissance ([1]; antiseptique seul)
9.7 ± 10.2%: viability at 0.8 % [2, 4]
0.4 ± 0.9%: viability at 0.6 % [2, 7]
0.8 ± 1.2%: viability at 0.4 % [2, 6]
9.2 ± 12.9%: viability at 0.6 % [2, 5]
-: croissance ([1]; Conc. 0,1 % (vol/vol), non) | croissance ([1]; Conc. 0,5 % (vol/vol), non) | croissance ([1]; Conc. 1,0 % (vol/vol), non) | croissance ([3]; Conc. 5 % (vol/vol), 15 min) | croissance ([3]; Conc. 5 % (vol/vol), 30 min) | croissance ([3]; Conc. 5 % (vol/vol), 60 min) | croissance ([3]; Conc. 10 % (vol/vol), 5 min) | croissance ([3]; Conc. 10 % (vol/vol), 15 min) | croissance ([3]; Conc. 10 % (vol/vol), 30 min) | croissance ([3]; Conc. 10 % (vol/vol), 60 min) | croissance ([3]; Conc. 25 % (vol/vol), 1 min) | croissance ([3]; Conc. 25 % (vol/vol), 3 min) | croissance ([3]; Conc. 25 % (vol/vol), 5 min) | croissance ([3]; Conc. 25 % (vol/vol), 15 min) | croissance ([3]; Conc. 25 % (vol/vol), 30 min) | croissance ([3]; Conc. 25 % (vol/vol), 60 min)
1.8 ± 2.5%: viability at 0.8 % [2, 5]
0%: viability at 1 % [2, 4] | viability at 1 % [2, 5] | viability at 0.8 % [2, 6] | viability at 0.8 % [2, 7] | viability at 1 % [2, 6] | viability at 1 % [2, 7]
0.8 ± 1%: viability at 0.4 % [2, 7]
